Inhibition data for 19 compounds are collected here from US20260374782A1, “NEW COMPOUNDS, PROCESSES FOR PREPARING THE SAME AND THEIR USE AS DRUGS” (B&A ONCOMEDICAL, priority 2022, published 2026).

The target in this assay is T1, NKCC1 (Homo sapiens, UniProt P55011).
T1 construct: endogenous in cells; host or cells: native HEK293 cells
T1 sequence (P55011 1-1212): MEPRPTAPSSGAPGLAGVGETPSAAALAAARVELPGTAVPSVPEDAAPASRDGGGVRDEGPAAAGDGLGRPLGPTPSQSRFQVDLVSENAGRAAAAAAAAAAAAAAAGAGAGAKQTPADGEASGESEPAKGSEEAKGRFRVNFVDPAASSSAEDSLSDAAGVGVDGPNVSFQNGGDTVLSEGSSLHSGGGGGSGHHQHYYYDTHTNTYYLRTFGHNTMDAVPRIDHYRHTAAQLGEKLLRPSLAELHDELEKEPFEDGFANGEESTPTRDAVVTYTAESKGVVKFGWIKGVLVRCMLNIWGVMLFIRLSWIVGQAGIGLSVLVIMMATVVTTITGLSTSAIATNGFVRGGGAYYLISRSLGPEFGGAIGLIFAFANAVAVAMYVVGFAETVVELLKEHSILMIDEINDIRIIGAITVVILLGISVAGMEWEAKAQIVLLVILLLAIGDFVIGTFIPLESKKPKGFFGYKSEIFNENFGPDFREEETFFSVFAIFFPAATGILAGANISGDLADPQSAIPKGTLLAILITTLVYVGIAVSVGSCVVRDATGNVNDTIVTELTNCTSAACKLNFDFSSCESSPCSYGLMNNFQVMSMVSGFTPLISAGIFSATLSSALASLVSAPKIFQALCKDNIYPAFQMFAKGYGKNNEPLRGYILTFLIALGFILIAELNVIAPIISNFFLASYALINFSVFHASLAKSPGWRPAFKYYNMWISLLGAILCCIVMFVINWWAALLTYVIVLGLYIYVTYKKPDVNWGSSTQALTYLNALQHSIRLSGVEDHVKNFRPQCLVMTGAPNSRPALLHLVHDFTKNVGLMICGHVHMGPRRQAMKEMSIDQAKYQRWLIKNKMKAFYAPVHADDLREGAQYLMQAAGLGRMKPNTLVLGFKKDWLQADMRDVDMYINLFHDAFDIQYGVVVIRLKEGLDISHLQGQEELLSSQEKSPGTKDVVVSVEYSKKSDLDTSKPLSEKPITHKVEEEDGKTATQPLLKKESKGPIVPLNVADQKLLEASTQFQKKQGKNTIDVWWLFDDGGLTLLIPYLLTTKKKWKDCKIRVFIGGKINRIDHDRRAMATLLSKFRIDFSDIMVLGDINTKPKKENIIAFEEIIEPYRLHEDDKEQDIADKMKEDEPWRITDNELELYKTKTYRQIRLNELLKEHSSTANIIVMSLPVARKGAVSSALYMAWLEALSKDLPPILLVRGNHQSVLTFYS
The assay can be described thus: NKCC1-mediated K+ influx (83Rb tracer uptake) in native HEK293 cells, hypertonic saline, 100 μM ouabain. Particulars: HEK293, no drug = 1000, 20 μM bumetanide = 0; for inhibition at 2 µM: read-out: NKCC1 mediated flux inhibition at 2 μM (%); for inhibition at 20 µM: read-out: NKCC1 mediated flux inhibition at 20 μM (%). Format: cell-based. The text has this: The compounds of the invention have been tested for evaluating their potency in inhibiting the NKCC1 channel. The test used is a cellular assay expressing the NKCC1 channel: HEK293 cells are human cells derived from embryonic kidney. The inhibitory activity of the compounds has been evaluated in measuring the modification of the potassium flux at 2 concentrations, as described hereafter in the biological protocol.
HEK293 cells are human cells derived from embryonic kidney. They express at their plasma membranes proteins that transport potassium (K^+). Among these proteins is the Na—K-2Cl cotransporter or NKCC1. This transporter contributes to 40-50% of K^+ influx into the cells. The remaining of K^+ transport is mediated by the Na^+/K^+-ATPase (also known as Na^+ pump or Na^+/K^+ pump), which also contributes some 40-50% of the influx basal flux of 5-10%, which is mainly due to K^+ channels (FIG. 1A). Thus, the HEK293 cell in culture is an ideal model to study the function of NKCC1 and test compounds that inhibits its transport.
The assay to measure NKCC1 function was optimized to obtain the next signal to noise ratio: • a. A slightly hypertonic saline was used to stimulate NKCC1 function. […] By consistent use of this simple manipulation, the NKCC1 signal was enhanced. • b. Ouabain, an inhibitor of the Na^+/K^+ pump, was used at 100 μM. […] A radioactive isotope was used to trace the inward movement of K^+ into the cell (influx). This allowed for highly precise measurements of K^+ influx. Because radioactive isotopes of K^+ had very short half-lives, radioactive isotopes of Rb^+ were used. Rubidium was a monovalent cation which was readily transporter at the K^+ binding site by many transporters and channels. Rb^+ was a congener of K^+, being transported undistinguishably from K^+. ^83Rb (half-life of 83 days) was used since ^86Rb (half-life of 19.6 days) is no longer commercially available. The ^83Rb isotope was used as a tracer, i.e. at a very low amounts to trace the movement of K^+.
K^+ influx measured in native HEK293 was in the range of 7000-9000 pmoles K^+ per mg protein per min. In the presence of 20 μM Ref 1, the flux was reduced to 600-900 pmoles K^+ per mg protein per min. Thus, there was a very solid dynamic range. In each experiment, the flux without Ref 1 was set at 1000 (equivalent to 100.0%) and the flux with 20 μM bumetanide was set at 0 (equivalent to 0%).
For the flux experiments, 35-mm culture dishes were coated with 0.1 mg/mL poly-L-lysine and placed in large 20×20 [square] dishes. For convenience, the poly-L-lysine was placed in the dishes the day before the experiment. Before plating the cells, the poly-L-lysine was aspirated, and each dish washed twice with 1 mL sterile water. Cells from 3 confluent 10-cm dishes were detached with trypsin and resuspended into 49 mL complete medium. Cells (2 mL/35-mm dish) were plated in 24 dishes and allowed to attach for at least 2 hours prior to the flux. This setup allowed the measurement of 8 conditions in triplicates. For the flux, culture medium was aspirated and replaced with 1 mL saline for a preincubation period of 15 min. The saline was aspirated and replaced with 1 mL identical saline containing 0.25 μCi/mL 83Rb for 15 min. Following the uptake period, the radioactive solution was aspirated, and the cells washed 3 times with ice-cold saline. Cells were then lyzed with 500 μl 0.25N NaOH for 1 hour, neutralized with 250 μL glacial acetic acid and 300 μL and 30 μL aliquots were used for μ-scintillation counting and protein assays, respectively. Two 5 μL of each flux solution was used to determine cpm and relate those cpm to nmoles K^+. Potassium influx was expressed in nmoles K^+ per mg protein per min. Note that within an experiment, groups of 3 dishes were separated 2 min apart for easy handling. Also note that since all dishes were plated with a homogeneous cell suspension, and all dishes were identical, the protein content was measured from a subset of dishes. […]

SMILES strings stand for the structures.

The inhibition is how much of the control response was suppressed. `CCCCNc1cc(C(=O)O)cc(S(=N)(=O)Nc2cccc(OC(F)F)c2)c1Oc1ccccc1` (stereo not shown) [Compound 74, 3-(butylamino)-5-[[3-(difluoromethoxy)anilino]sulfonimidoyl]-4-phenoxy-benzoic acid]: the inhibition at 2 µM is 50 to 75% and the inhibition at 20 µM is no less than 75%.
On to `CCCCNc1cc(C(=O)OC)cc(S(=N)(=O)Nc2ncccn2)c1Oc1ccccc1` (stereo not shown) [Compound 31, methyl 3-(butylamino)-4-phenoxy-5-[(pyrimidin-2-ylamino)sulfonimidoyl]benzoate], for which the inhibition at 20 µM was in the range of 10 to 30%.
As for `CCCCNc1cc(C(=O)OC)cc(S(=N)(=O)NCC2CCN(C)CC2)c1Oc1ccccc1` (stereo not shown) [Compound 50, methyl 3-(butylamino)-5-[[(1-methyl-4-piperidyl)methylamino]sulfonimidoyl]-4-phenoxy-benzoate], the inhibition at 2 µM was in the range of 30 to 50% and the inhibition at 20 µM lay in the range of 30 to 50%.
Regarding `CCCCNc1cc(C(=O)NCC(F)(F)F)cc(S(=N)(=O)NC2CCOCC2)c1Oc1ccccc1` (stereo not shown) [Compound 123, 3-(butylamino)-4-phenoxy-5-[(tetrahydropyran-4-ylamino)sulfonimidoyl]-N-(2,2,2-trifluoroethyl)benzamide], the inhibition at 2 µM lay in the range of 30 to 50% and the inhibition at 20 µM is 10 to 30%.
Consider `CCCCNc1cc(C(=O)NC)cc(S(=N)(=O)NCc2ccccc2)c1Oc1ccccc1` (stereo not shown) [Compound 102, 3-[(benzylamino)sulfonimidoyl]-5-(butylamino)-N-methyl-4-phenoxy-benzamide], for which the inhibition at 20 µM was 10 to 30%.
The same measure, in the same setting: as for `CCCCNc1cc(C(=O)O)cc(S(=N)(=O)N(C)CC)c1Oc1ccccc1` (stereo not shown) [Compound 55, 3-(butylamino)-5-[[ethyl(methyl)amino]sulfonimidoyl]-4-phenoxy-benzoic acid], the figure is 50 to 75%.
On the same count and under the same terms, as for `CCCCNc1cc(C(=O)O)cc(S(=O)(=NC)N(C)CC)c1Oc1ccccc1` (stereo not drawn) [Compound 100, 3-(butylamino)-5-[S-[ethyl(methyl)amino]-N-methyl-sulfonimidoyl]-4-phenoxybenzoic acid], the figure is 30 to 50%.
Consider `CCCCNc1cc(C(=O)NC)cc(S(=N)(=O)NCc2cccc(Cl)c2)c1Oc1ccccc1` (stereo not shown) [Compound 116, 3-(butylamino)-5-[[(3-chlorophenyl)methylamino]sulfonimidoyl]-N-methyl-4-phenoxy-benzamide], for which the inhibition at 2 µM is 30 to 50%.
Regarding `CCCCNc1cc(C(=O)OC)cc(S(=N)(=O)Nc2cccc(OC(F)F)c2)c1Oc1ccccc1` (stereo not shown) [Compound 28, methyl 3-(butylamino)-5-[[3-(difluoromethoxy)anilino]sulfonimidoyl]-4-phenoxy-benzoate], the inhibition at 20 µM is 30 to 50%.
As for `CCCCNc1cc(C(=O)O)cc(S(=N)(=O)N2CCCCCC2)c1Oc1ccccc1` (stereo not shown) [Compound 61, 3-(azepan-1-ylsulfonimidoyl)-5-(butylamino)-4-phenoxy-benzoic acid], the inhibition at 2 µM fell in the range of 30 to 50% and the inhibition at 20 µM is no less than 75%.
On to `CCCCNc1cc(C(=O)NC2CC2)cc(S(=N)(=O)Nc2ccccc2)c1Oc1ccccc1` (stereo not shown) [Compound 106, 3-(anilinosulfonimidoyl)-5-(butylamino)-N-cyclopropyl-4-phenoxy-benzamide], for which the inhibition at 2 µM was 30 to 50%.
In the case of `CCCCNc1cc(C(=O)O)cc(S(=N)(=O)NCCc2cccc(Cl)c2)c1Oc1ccccc1` (stereo not shown) [Compound 82, 3-(butylamino)-5-[[2-(3-chlorophenyl)ethylamino]sulfonimidoyl]-4-phenoxy-benzoic acid], the inhibition at 2 µM fell in the range of 10 to 30% and the inhibition at 20 µM is no less than 75%.
As to `CCCCNc1cc(C(=O)NC)cc(S(=N)(=O)N2Cc3ccccc3C2)c1Oc1ccccc1` (stereo not shown) [Compound 112, 3-(butylamino)-5-(isoindolin-2-ylsulfonimidoyl)-N-methyl-4-phenoxy-benzamide], the inhibition at 2 µM lay within 10 to 30%.
As to `CCCCNc1cc(C(=O)NC)cc(S(=N)(=O)Nc2ccccc2)c1Oc1ccccc1` (stereo not shown) [Compound 104, 3-(anilinosulfonimidoyl)-5-(butylamino)-N-methyl-4-phenoxy-], the inhibition at 2 µM lay in the range of 30 to 50%.
On to `CCCCNc1cc(C(=O)O)cc(S(=N)(=O)NCc2cccnc2)c1Oc1ccccc1` (stereo not shown) [Compound 83, 3-(butylamino)-4-phenoxy-5-[(3-pyridylmethylamino)sulfonimidoyl]benzoic acid], for which the inhibition at 2 µM lay in the range of 30 to 50% and the inhibition at 20 µM was no less than 75%.
The like results for `CCCCNc1cc(C(=O)O)cc(S(=N)(=O)NCc2cccc(Cl)c2)c1Oc1ccccc1` (stereo not shown) [Compound 71, 3-(butylamino)-5-[[(3-chlorophenyl)methylamino]sulfonimidoyl]-4-phenoxy-benzoic acid] were, in that order, no less than 75% and no less than 75%.
`CCCCNc1cc(C(=O)OC)cc(S(=N)(=O)NCC2CCCCC2)c1Oc1ccccc1` (stereo not shown) [Compound 12, methyl 3-(butylamino)-5-[(cyclohexylmethylamino)sulfonimidoyl]-4-phenoxy-benzoate]: the inhibition at 2 µM was 10 to 30% and the inhibition at 20 µM lay within 30 to 50%.
Regarding `CCCCNc1cc(C(=O)OC)cc(S(=N)(=O)NCCc2cccc(Cl)c2)c1Oc1ccccc1` (stereo not shown) [Compound 35, methyl 3-(butylamino)-5-[[2-(3-chlorophenyl)ethylamino]sulfonimidoyl]-4-phenoxy-benzoate], the inhibition at 20 µM lay in the range of 30 to 50%.
For the compound `CCCCNc1cc(C(=O)OC)cc(S(=N)(=O)Nc2ccn(C)n2)c1Oc1ccccc1` (stereo not shown) [Compound 21, methyl 3-(butylamino)-5-[[(1-methylpyrazol-3-yl)amino]sulfonimidoyl]-4-phenoxy-benzoate], the inhibition at 2 µM lay within 10 to 30% and the inhibition at 20 µM is 30 to 50%.
